Experimental findings from patent publication US11089805B2, “Mucosal immunomodulator” (Yamada Bee Company, Inc., priority 2016, dated 2021) are described below.

For test [1], the system named is Caco-2 cells. Briefly: Morphological analysis by electron microscope. The class given is cell-based, human. Particulars: Caco-2 single-layer film in Transwell, final concentration 100 μm, apical side, 3 days. From the text:
M cells generally have the morphological characteristics that microvilli on the apical side are shorter than those of epithelial cells in the vicinity thereof.

Test [2] deals with anti-Fetuin, anti-poliovirus and anti-influenza virus IgA antibody titer in the feces. More on the design: species or system cynomolgus monkeys (Macaca fascicularis). Particulars: cynomolgus monkey, in vivo.
Test [3] deals with Caco-2 cells. As to the kind of experiment: M-cell differentiation induction test, in vitro (FACS analysis of GP2 expression). The following applies: for effect on expression of GP2 (in words): Caco-2 cells, 100 μM, 3 days, FACS; for fold induction at 100 µM: Homo sapiens, Caco-2, 72 h, read-out: GP2 Expression Level (relative value when DMSO = 1). In general terms: In flow cytometry, cells or beads pass a laser one at a time.

On to `O=C(O)CCCCCCCCCO` [10-Hydroxydecanoic Acid, 10-hydroxydecanoic acid], for which the “cell morphology (microvilli) by electron microscope” value in the test on Caco-2 cells [1] is reported as “cells with short microvilli were observed”. In test [2], the “anti-Fetuin IgA antibody titer in the feces” value is “increases”, the “anti-influenza virus IgA antibody titer in the feces” value is given as “increases” and the “anti-poliovirus IgA antibody titer in the feces” value is “increases”. Further, in the test with Caco-2 cells [3], the “effect on expression of GP2 (in words)” value is reported as “induced the expression of GP2” and the fold induction at 100 µM was found to be 2.63.
Regarding `C[C@@H](O)CCCCC/C=C/C(=O)O` [Formula (4), (2E,9R)-9-hydroxy-2-decenoic acid], in the test with Caco-2 cells [3], the “effect on expression of GP2 (in words)” value was “induced the expression of GP2” and the fold induction at 100 µM worked out at 1.72.
On the same counts, the results for `COC(=O)/C=C/CCCCC[C@@H](O)CO` [Formula (5), (2E,9R)-methyl-9,10-dihydroxy-2-decenoate] are “intensely induced the expression of GP2” and 2.46.
Consider `O=C(O)/C=C/CCCCCCC[C@@H](O)CO` [Formula (6), (2E,11R)-11,12-dihydroxy-2-dodecenoic acid], for which, in the test with Caco-2 cells [3], the “effect on expression of GP2 (in words)” value was “intensely induced the expression of GP2” and the fold induction at 100 µM turned out to be 4.03.
With `O=C(O)CC(O)CCCCCCCO` (stereo not shown) [Formula (7), (2E)-3,10-dihydroxy-decanoic acid], in the test with Caco-2 cells [3], the “effect on expression of GP2 (in words)” value is on record as “induced the expression of GP2” and the fold induction at 100 µM was 1.48.
For the compound `O=C(O)CCCCCCCCC(=O)O` [Formula (8), sebacic acid], in the test on Caco-2 cells [3], the “effect on expression of GP2 (in words)” value is given as “induced the expression of GP2” and the fold induction at 100 µM is 1.45.
Taken in the same sequence, the figures for `O=C(O)/C=C/CCC[C@@H](O)CO` [Formula (9), (2E,7R)-7,8-dihydroxy-2-octenoic acid] were “suppressed the expression of GP2” and 0.75.
Taken in the same sequence, the figures for `O=C(O)/C=C\CCCCC[C@@H](O)CO` [Formula (10), (2Z,9R)-9,10-dihydroxy-2-decenoic acid] were “suppressed the expression of GP2” and 0.83.
On the same counts, the results for `CC(=O)OCCCC/C=C/C(=O)O` [Formula (11), (2E)-7-acetoxy-2-heptenoic acid] are “intensely suppressed the expression of GP2” and 0.16.
Consider `CC(=O)OC[C@@H](CCCCC/C=C/C(=O)O)OC(C)=O` [Formula (12), (2E,9R)-9,10-diacetoxy-2-decenoic acid], for which, in the test on Caco-2 cells [3], the “effect on expression of GP2 (in words)” value is given as “intensely suppressed the expression of GP2” and the fold induction at 100 µM amounted to 0.48.
On the same counts, the results for `O=C(O)/C=C/CCCCC[C@H](O)CO` [Formula (13), (2E,9S)-9,10-dihydroxy-2-decenoic acid] are “intensely suppressed the expression of GP2” and 0.39.
On the same counts, the results for `CCCCCC(O)C(O)/C=C/C(O)CCCCCCCC(=O)O` [Formula (14), 9(S),12(S),13(S)-trihydroxy-10(E)-octadecenoic acid] are “suppressed the expression of GP2” and 0.74.
